According to patent publication EP0362304B1, “CHEMICAL SENSORS EMPLOYING CATALYTIC ANTIBODIES” (IGEN, INC., priority 1987, dated 1989):

Legend:
[1] = tested on: IgG designated catalytic antibody 48G7, monoclonal antibody elicited to the tetrahedral nitrophenyl phosphonate transition-state analogue (2); test: Antibody-catalysed hydrolysis of carbonate (1), followed by the increase in absorbance at 400 nm (nitrophenolate ion release), Michaelis-Menten kinetics; format: biochemical, BALB/C mice
Experimental: BALB/C mice were immunized with the BSA-phosphonate conjugate emulsified in complete Freund's adjuvant. A fusion was carried out by standard methods using SP2/0 myeloma as the fusion partner. IgG was purified from ascites fluid by affinity chromatography on protein A coupled Sepharose 4B and dialyzed exhaustively against reaction buffer.
The rates of hydrolysis of carbonate I (1) in the presence (kobsd) and the absence (kun) of 4.4 µM antibody were determined as a function of substrate concentration. Carbonate hydrolysis was followed in 10 mM Tris-HCl, pH 8.5 at 30°C, by following the increase in absorbance at 400 nm due to nitrophenolate ion release.

catalytic antibody 48G7 = test: pH-based catalytic antibody biosensor: differential electrode response to MpNPC after incubation in transition state analog; format: biochemical, BALB/C mice; settings: electrodes incubated in 50 µM TSA; pH 8.5 buffer (0.14 M KCl, 0.01 M Tris, 0.02% sodium azide); substrate MpNPC
Source text: A pH-based catalytic antibody biosensor incorporating catalytic antibodies as enzyme mimics in a configuration similar to that of enzyme electrodes was used to measure the pH change resulting from the catalyzed hydrolysis of methyl p-nitrophenylcarbonate (MpNPC). […] The catalytic antibody 48G7 is synthesized and its catalytic activity identified in accordance with the methodology described in Example 1.
The catalytic antibody 48G7 produces a relatively small rate of acceleration as compared to natural enzymes. Consequently, the observed pH difference is small but is easily measurable in a reproducible manner. […] Two miniature pH electrodes 152 and 154 were employed and the difference between the two was monitored. […]
The electrical potential of the two miniature pH electrodes 152 and 154 (Microelectrodes Inc., model MI-404) was monitored relative to a single Ag/AgCl reference electrode 156 in an nonthermostated vessel 158 as shown in Fig. 13 using two Keithley 617 electrometers 160. […]
The reference electrode 156 and the two pH electrodes 152 and 154 were placed in 2.5 ml of a pH 8.5 buffer (0.14 M KCl, 0.01 M Tris, 0.02% sodium azide) and allowed to stabilize for […]. […] The response to MpNPC was measured after approximately 12 hours in solution (not shown) but the remainder of the measurements were performed after approximately 36 hours in solution. […]

[2] = 4.4 µM antibody, 10 mM Tris-HCl, pH 8.5 at 30°C, first pair of values printed
[3] = second pair of values printed ("This IgG", designated 48G7)

With COC(=O)Oc1ccc([N+](=O)[O-])cc1 [carbonate (1), methyl p-nitrophenylcarbonate] the Km [1, 2] was 660 µM, the kcat [1, 2] was 0.0233 ± 0.00333 s⁻¹ and the “rate acceleration above background” value ([1]; antibody-catalysed versus background rate) was 16,000. The Km [1, 3] was 350 µM and the kcat [1, 3] was 0.483 s⁻¹.

With COP(=O)(O)Oc1ccc([N+](=O)[O-])cc1 [transition state analog (TSA), methyl p-nitrophenylphosphate] the “inhibition of catalysis (MpNPC hydrolysis)” value (catalytic antibody 48G7) was “effectively inhibits the catalysis”.
